What was measured:
D10 transcript = test: qRT-PCR of D10 transcript levels in rice roots; assay type: in vivo, Oryza sativa; settings: roots of 8-day-old seedlings, 1 μM (+)-GR24 for 24 h (FIG. 3h)
Experimental: We performed quantitative reverse transcription-PCR (qRT-PCR) to determine D10 transcript levels, according to the method described before^38. Total RNA was extracted from roots using RNeasy Maxi kit (Qiagen). qRT-PCR was carried out to determine D10 transcript levels using gene specific primers and a Taq-Man probe (Table 1 as describe above). Ubiquitin expression was used as an internal standard.

[1] = system: tiller bud outgrowth of rice
Experimental: Rice and Arabidopsis seeds were surface-sterilized and the seedlings were first grown aseptically on agar media. Plants were then grown hydroponically in growth chambers. For both rice and Arabidopsis, strigolactones were added to the hydroponic culture medium.
We used rice normal cultivars (Oryza sativa L. cv. Shiokari and cv. Nipponbare) and tillering dwarf mutants (FIG. 6) in this study. Rice seeds were washed in 70% ethanol for 30 sec, sterilized in 2.5% sodium hypochlorite solution for 15 min, rinsed with sterile water, and then imbibed at 28° C. in the dark for 2 days. Germinated seeds were transferred into hydroponic culture media^39 solidified with 0.6% agar (pH5.7) and cultured at 25° C. under fluorescence white light (150-200 μmol m^−2 s^−1) with a 16 h light/8 h dark photoperiod for 5 days. Each seedling was then transferred to a glass vial containing a sterilized hydroponic culture solution (13 ml), fixed with a piece of sponge at the root-shoot junction to the top of the vial, and grown under the same condition for additional 7 days (total 2 weeks). The hydroponic solution was supplemented every 3 days. For large-scale cultures, the 2-weeks-old seedlings were transferred into a 4-L porcelain pot containing the same hydroponic solution and grown under the same condition. After the transfer to pots, the solution was renewed weekly.
To further investigate the relationships between the D10/D17-derived branching inhibitor and strigolactones, we examined the effect of strigolactone treatment on rice d mutants.

[2] = system: axillary bud outgrowth of Arabidopsis; test: Axillary bud outgrowth (shoot branching) of Arabidopsis in hydroponic culture; assay type: in vivo, Arabidopsis thaliana; settings: 5 μM in the hydroponic culture media
Experimental: Plants were then grown hydroponically in growth chambers. […] We used Arabidopsis thaliana ecotype Col-0 as the wild type and max mutants (FIG. 6). Seeds were sterilized in 1% sodium hypochlorite solution for 5 min, rinsed with sterile water, and stratified for one day at 4° C. […] Plants were then transferred to a glass pot containing 400 ml hydroponic solution^41 and grown under the same environmental condition for additional 15 days. The solution was renewed every 3 days. To measure germination stimulants, sterilized and stratified seeds were placed on glass beads (30 ml) wetted with 1/10 strength MS liquid media (10 ml) in a Petri dish (9 cm diameter) and grown for 14 days under the same conditions above. The culture media were collected and subjected to S. hermonthica germination assay.

S. hermonthica seeds = test: Germination assay using S. hermonthica seeds; assay type: in vivo, Striga hermonthica; settings: positive control, 10^−7 M (FIG. 2f)
Text: The levels of strigolactones released to hydroponic culture media were estimated by germination stimulating activity using S. hermonthica seeds as described previously ^32 Strigolactones were identified and quantified on LC-MS/MS by comparing the retention time and full-scan spectrum with those of authentic standards. We synthesized deuterium-labeled epi-5DS (d1-epi-5DS) and used as an internal standard for quantitative analysis using LC-MS/MS. Germination assays using S. hermonthica were performed as described previously^32 For each bioassay, de-ionized water and (+)-strigol solution were used as negative and positive controls, respectively.

Structure (SMILES)	D10 transcript levels in d10-1 and wild type seedlings (D10 transcript)	tiller bud outgrowth at 1 μM ([1]; 1 μM, 2-week-old d10-1 and d17-1 seedlings)	lowest concentration at which the inhibitory effect on tiller bud outgrowth was detectable ([1]; 2-week-old d10-1 and d17-1 seedlings) [nM]	inhibition of tiller bud outgrowth ([1]; 2-week-old d10-1 and d17-1 seedlings, compound applied to the media)	effect on d3-1 mutant plants ([1]; 6-week-old d3-1, 2 μM in the culture media)	branching phenotype and plant height of d10-1 mutant ([1]; 6-week-old d10-1, 2 μM in the culture media)	sensitivity of tiller bud outgrowth of the d3-1 mutant ([1]; d3-1 mutant seedlings (defective in probable signaling component))	morphological abnormalities in wild type seedlings after treatment ([1]; in vivo)	plant height of wild type seedlings ([1]; in vivo)	sensitivity of branching of max2 mutants [2]	enhanced branching phenotype of max3 and max4 mutants ([2]; 30-day-old plants)	germination of S. hermonthica seeds (S. hermonthica seeds)
CC1=C[C@H](O/C=C2/C(=O)O[C@@H]3c4ccccc4C[C@H]23)OC1=O [GR24]	decreased	nearly fully inhibited	10	inhibited tiller bud outgrowth of 2-week-old d10-1 and d17-1 seedlings in a dose-dependent manner	no visible effect	complemented	insensitive	No morphological abnormalities were evident	did not change the plant height	insensitive	rescued	–
CC1=C[C@H](O/C=C2/C(=O)O[C@@H]3C4=C(C[C@H]23)[C@@H](O)CCC4(C)C)OC1=O [(+)-strigol, (+)-Strigol]	–	–	–	–	–	–	–	–	–	–	–	germination induced

Reference: US8633356B2, “Method for controlling root parasitic plants” (Riken, priority 2008, dated 2014)
